Test results published in patent US20260174860A1, “HYBRID COMPOUNDS OF SCLAREOL AND DOXORUBICIN, THEIR SYNTHESIS AND APPLICATION” (INSTITUTE FOR BIOLOGICAL RESEARCH "SINISA STANKOVIC" - …, priority 2023, published 2026).

How the values were obtained:
Test in all cases: MTT test of cell viability, 72 h treatment
Assay type in all cases: cell-based
[1] = system: NCI-H460/R resistant human non-small cell lung carcinoma cell line; conditions: for IC50: MTT, 72 h, MDR line; for Relative Resistance: ratio IC50 NCI-H460/R / IC50 NCI-H460
Experimental: (§1) The MTT test was used to evaluate the effect of the compounds on cell viability. The test relies on the reduction of tetrazolium salt (MTT) to formazan, which is catalyzed by the mitochondrial enzyme succinate dehydrogenase. The activity of succinate dehydrogenase, which is indicative of mitochondrial respiration, is taken as an indirect measure of the metabolic activity of the cell, and thus its viability. The MTT-formazan produced is a purple-colored product, whose absorbance is measured at a wavelength of 570 nm. • a) To determine the inhibition of cell growth by SC, different cell lines were exposed to increasing concentrations of SC (5, 10, 25, 50, and 100 μM). The cells were seeded in 96-well microtiter plates at a density of 2,000 cells per well for NCI-H460, NCI-H460/R, DLD1 and DLD1-TxR, and 4,000 cells per well for MRC-5, U87, U87-TxR, and U251 in 100 μL of the appropriate medium. Control cells that received no treatment were also seeded at the same time. After 24 h for adaptation, the cells were treated with various concentrations of SC. After 72 h of treatment, 0.2 mg/ml MTT was added to each well in the appropriate cell culture medium. After 4 h of incubation at 37° C. with 5% CO2, the medium was removed, and 100 μL of DMSO were added to each well, to dissolve the formazan. The absorbance of the samples was measured at 570 nm using a Multiskan Sky Microplate spectrophotometer (ThermoFisher Scientific, USA). The results were analyzed using GraphPad Prism 8.0.2. software, and the IC50 values were determined by non-linear regression. • b) To test the interaction between SC and DOX in terms of cytotoxicity in different cell lines, cells were seeded in 96-well microtiter plates at a density of 2,000 cells per well for NCI-H460, NCI-H460/R, DLD1 and DLD1-TxR, and 4,000 cells per well for MRC-5, U87, U87-TxR, and U251 in 100 μl of the appropriate medium. SC (10 and 20 μM) was combined with increasing concentrations of DOX (20, 50, 100, 200, and 500 nM). The cells were treated with the simultaneous combinations for 72 h. After this period, 0.2 mg/ml MTT was added to each well, followed by 4 hours of incubation at 37° C. with 5% CO2. The medium was then removed, and DMSO was added to each well to dissolve the formazan.
(§2) The absorbance of the samples was measured at 570 nm using a Multiskan Sky Microplate spectrophotometer.
(§3) The analysis was carried out using GraphPad Prism software version 8.0.2 to determine the nature of the interaction, namely synergistic, antagonistic, or additive, between compounds. This was done using the computer software CalcuSyn, which is based on the combination index method. The method takes into account the concentration of compounds, the individual effect of each compound, as well as the effect of two compounds in combination. The values of the combination indices (CI) describe the nature of the interaction: Cl<0.9 indicates synergism, Cl>1.1 indicates antagonism, and Cl=0.9-1.1 indicates an additive effect. • c) To compare the resistance and selectivity profiles among SC, DOX, CON1, and CON2, human glioblastoma cell lines U87, U87-TxR, and MRC-5 were seeded at a density of 4,000 cells per well in 100 μL of the appropriate medium. In contrast, NCI-H460, NCI-H460/R, and MRC-5 were seeded at a density of 2,000 cells per well in 100 μL of the proper medium. The effect of SC derivatives LIG1 and LIG2 was also examined. The range of concentrations differed among the cell lines and the compounds. For LIG1 and LIG2, the range of concentrations for all cell lines was 50, 100, 200, 300, and 400 μM, while the same range was used for the MRC-5 in the case of SC, CON1, and CON2. DOX concentrations ranged 0.1, 0.25, 0.5, 1, and 2.5 μM for U87 and NCI-H460, and 0.25, 0.5, 1, 2.5, and 5 μM for U87-TxR, NCI-H460/R, and MRC-5. Five concentrations used for SC, CON1, and CON2 treatments varied in the range 1, 2.5, 5, 10, 25, 50, and 100 μM. The treatment lasted 72 h. […]

[2] = system: U87-TxR resistant human glioblastoma cell line; conditions: for IC50: MTT, 72 h, MDR line; for Relative Resistance: ratio IC50 U87-TxR / IC50 U87
Experimental: as §1, §2, §3

[3] = system: MRC-5 human lung fibroblast cell line
Experimental: as §1, §2, §3

[4] = system: NCI-H460 human non-small cell lung carcinoma cell line; conditions: for IC50: MTT, 72 h; for Selectivity Index: ratio IC50 MRC-5 (2,000 cells per well) / IC50 NCI-H460
Experimental: as §1
as §3, with “h. After the treatment period, 0.2 mg/ml MTT in the appropriate cell culture medium was added to each well.” for “h.”

[5] = system: U87 human glioblastoma cell line; conditions: for IC50: MTT, 72 h; for Selectivity Index: ratio IC50 MRC-5 (4,000 cells per well) / IC50 U87
Experimental: as §1
as §3, with “h. After the treatment period, 0.2 mg/ml MTT in the appropriate cell culture medium was added to each well.” for “h.”

[6] = Homo sapiens, NCI-H460, DOX only

Molecule: COc1cccc2c1C(=O)c1c(O)c3c(c(O)c1C2=O)C[C@@](O)(C(=O)CO)C[C@@H]3O[C@H]1C[C@H](N)[C@H](O)[C@H](C)O1 [DOX, doxorubicin]
- IC50 [1, 6]: 2.5 µM
- Relative Resistance [1]: 19.6
- IC50 ([2]; Homo sapiens, U87-TxR, DOX only): 1.32 µM
- Relative Resistance [2]: 13.2
- IC50 ([3]; Homo sapiens, MRC5, 72 h, 2,000 cells per well (non-small cell carcinoma experiments), DOX only): 0.588 µM
- IC50 ([3]; Homo sapiens, MRC5, 72 h, 4,000 cells per well (glioblastoma experiments), DOX only): 0.295 µM
- IC50 [4, 6]: 0.128 µM
- Selectivity Index [4]: 4.6
- IC50 ([5]; Homo sapiens, DOX only): 0.1 µM
- Selectivity Index [5]: 2.9

Molecule: C=C[C@](C)(O)CC[C@@H]1[C@@]2(C)CCCC(C)(C)[C@@H]2CC[C@@]1(C)O [SC, sclareol]
- IC50 ([1]; Homo sapiens, NCI-H460): 47.4 µM
- Relative Resistance [1]: 1.2
- IC50 ([2]; Homo sapiens, U87-TxR): 39.2 µM
- Relative Resistance [2]: 0.8
- IC50 ([3]; Homo sapiens, MRC5, 72 h, 2,000 cells per well (non-small cell carcinoma experiments)): 64.1 µM
- IC50 ([3]; Homo sapiens, MRC5, 72 h, 4,000 cells per well (glioblastoma experiments)): 75.9 µM
- IC50 ([4]; Homo sapiens, NCI-H460): 40.3 µM
- Selectivity Index [4]: 1.6
- IC50 ([5]; Homo sapiens): 51.6 µM
- Selectivity Index [5]: 1.5

Molecule: N1-((25,3S,4S,6R)-3-hydroxy-2-methyl-6-(((1S,3S)-3,5,12-trihydroxy-3-(2-hydroxyacetyl)-10-methoxy-6,11-dioxo-1,2,3,4,6,11-hexahydrotetracen-1-yl)oxy)tetrahydro-2H-pyran-4-yl)-N4-(3-((4-((R,E)-3-hydroxy-5-((1R,2R,4aS,8aS)-2-hydroxy-2,5,5,8a-tetramethyldecahydronaphthalen-1-yl)-3-methylpent-1-en-1-yl)benzyl)amino)propyl) succinamide [CON1]
- IC50 [1]: 38.4 µM
- Relative Resistance [1]: 3.9
- IC50 [2]: 28.7 µM
- Relative Resistance [2]: 3.3
- IC50 ([3]; 2,000 cells per well (non-small cell carcinoma experiments)): 72.6 µM
- IC50 ([3]; 4,000 cells per well (glioblastoma experiments)): 137 µM
- IC50 [4]: 9.8 µM
- Selectivity Index [4]: 7.4
- IC50 [5]: 8.8 µM
- Selectivity Index [5]: 15.6
